The NIST ThermoML archive (doi:10.1016/j.jct.2010.04.013)

Assay: mn = molality of the nth substance listed, in mol/kg
Conditions: 101 kPa, Liquid; for mass density: Vibrating tube method; for speed of sound: Pulse-echo method

O=S(=O)([O-])C(F)(F)F.O=S(=O)([O-])C(F)(F)F.[Be+2] [beryllium 1,1,1-trifluoromethanesulfonate] + C[S+](C)[O-]
Conditions	mass density, 293.15 K [kg/m3]	mass density, 298.15 K [kg/m3]	mass density, 303.15 K [kg/m3]	mass density, 313.15 K [kg/m3]	mass density, 323.15 K [kg/m3]	mass density, 333.15 K [kg/m3]	speed of sound, 298.15 K [m/s]
m1 = 0.01855	1103.22	1098.21	1093.19	1083.18	1073.16	1063.14	–
m1 = 0.0259	1104.42	1099.41	1094.4	1084.39	1074.38	1064.37	1484.1
m1 = 0.03349	1105.65	1100.64	1095.64	1085.64	1075.64	1065.64	1484.1
m1 = 0.0433	1107.25	1102.25	1097.25	1087.27	1077.27	1067.29	1484.1
m1 = 0.0531	1108.84	1103.84	1098.85	1088.88	1078.9	1068.92	1484.1
m1 = 0.06815	1111.3	1106.31	1101.33	1091.37	1081.41	1071.46	1484.1
m1 = 0.08651	1114.3	1109.32	1104.35	1094.41	1084.48	1074.55	1484.1
m1 = 0.1051	1117.36	1112.4	1107.44	1097.52	1087.61	1077.69	1484.1
m1 = 0.1237	1120.43	1115.48	1110.52	1100.63	1090.75	1080.86	1484.1
m1 = 0.1446	1123.89	1118.95	1114.01	1104.14	1094.27	1084.41	1484.1
m1 = 0.1621	1126.82	1121.88	1116.95	1107.09	1097.24	1087.39	1484.1

[Ba+2].[O-][Cl+3]([O-])([O-])[O-].[O-][Cl+3]([O-])([O-])[O-] [barium perchlorate] + C[S+](C)[O-]
Conditions	mass density, 293.15 K [kg/m3]	mass density, 298.15 K [kg/m3]	mass density, 303.15 K [kg/m3]	mass density, 313.15 K [kg/m3]	mass density, 323.15 K [kg/m3]	mass density, 333.15 K [kg/m3]	speed of sound, 298.15 K [m/s]
m1 = 0.03102	1108.57	1103.55	1098.53	1088.51	1078.49	1068.47	–
m1 = 0.04247	1111.68	1106.66	1101.64	1091.63	1081.62	1071.61	1485.2
m1 = 0.05458	1114.98	1109.97	1104.95	1094.94	1084.94	1074.94	1485.5
m1 = 0.06931	1119.03	1114.02	1109	1099	1089.01	1079.01	1486
m1 = 0.08432	1123.18	1118.17	1113.16	1103.17	1093.18	1083.2	1486.3
m1 = 0.1063	1129.31	1124.31	1119.3	1109.32	1099.34	1089.37	1486.8
m1 = 0.1359	1137.67	1132.66	1127.67	1117.69	1107.73	1097.78	1487.8
m1 = 0.1651	1146.06	1141.06	1136.07	1126.1	1116.15	1106.21	1488.5
m1 = 0.191	1153.55	1148.55	1143.57	1133.61	1123.67	1113.74	1489.3
m1 = 0.222	1162.7	1157.71	1152.72	1142.77	1132.84	1122.92	1490.4
m1 = 0.25	1171.03	1166.04	1161.06	1151.11	1141.21	1131.31	1491.5
